Reference: ChEMBL document CHEMBL1135076, “Leishmanicidal activity of some aliphatic diamines and amino-alcohols” (Bioorg Med Chem Lett, 2002)

Assays:
Type in all cases: functional, organism-based
Leishmania amazonensis [1] = experiment: In vitro for leishmanicidal activity against Leishmania amazonensis (PH8) at the concentration of 100 ug/mL.
Leishmania donovani [2] = experiment: Tested in vitro for leishmanicidal activity against Leishmania donovani (PP75) at the concentration of 50 ug/mL;++ indicates 80-90% lysis of parasites
Leishmania braziliensis [3] = experiment: Tested in vitro for leishmanicidal activity against Leishmania brasiliensis (2903) at the concentration of 10 ug/mL;+ indicates Less than 70% lysis of parasites
Leishmania amazonensis [4] = experiment: Tested in vitro for leishmanicidal activity against Leishmania amazonensis (PH8) at the concentration of 25 ug/mL; + indicates less than 70% lysis of parasites
Leishmania amazonensis [5] = experiment: Tested in vitro for leishmanicidal activity against Leishmania amazonensis (PH8) at the concentration of 50 ug/mL; ++ indicates 80-90% lysis of parasites
Leishmania braziliensis [6] = experiment: Tested in vitro for leishmanicidal activity against Leishmania brasiliensis (2903) at the concentration of 25 ug/mL;+ indicates Less than 70% lysis of parasites
Leishmania donovani [7] = experiment: Tested in vitro for leishmanicidal activity against Leishmania donovani (PP75) at the concentration of 25 ug/mL;+ indicates Less than 70% lysis of parasites
Leishmania donovani [8] = experiment: In vitro for leishmanicidal activity against Leishmania donovani (PP75) at the concentration of 10 ug/mL.
Leishmania braziliensis [9] = experiment: Tested in vitro for leishmanicidal activity against Leishmania brasiliensis (2903) at the concentration of 50 ug/mL;++ indicates 80-90% lysis of parasites
Leishmania braziliensis [10] = experiment: In vitro for leishmanicidal activity against Leishmania brasiliensis (2903) at the concentration of 100 ug/mL.
Leishmania amazonensis [11] = experiment: In vitro for leishmanicidal activity against Leishmania amazonensis (PH8) at the concentration of 10 ug/mL.
Leishmania donovani [12] = experiment: In vitro for leishmanicidal activity against Leishmania donovani (PP75) at the concentration of 100 ug/mL.
Leishmania amazonensis [13] = experiment: In vitro for leishmanicidal activity against Leishmania amazonensis (PH8) at the concentration of 50 ug/mL.
Leishmania donovani [14] = experiment: Tested in vitro for leishmanicidal activity against Leishmania donovani (PP75) at the concentration of 25 ug/mL;++ indicates 80-90% lysis of parasites
Leishmania braziliensis [15] = experiment: Tested in vitro for leishmanicidal activity against Leishmania brasiliensis (2903) at the concentration of 25 ug/mL;++ indicates 80-90% lysis of parasites
Leishmania amazonensis [16] = experiment: Tested in vitro for leishmanicidal activity against Leishmania amazonensis (PH8) at the concentration of 25 ug/mL; ++ indicates 80-90% lysis of parasites
Leishmania donovani [17] = experiment: In vitro for leishmanicidal activity against Leishmania donovani (PP75) at the concentration of 50 ug/mL.
Leishmania braziliensis [18] = experiment: In vitro for leishmanicidal activity against Leishmania brasiliensis (2903) at the concentration of 10 ug/mL.
Leishmania donovani [19] = experiment: Tested in vitro for leishmanicidal activity against Leishmania donovani (PP75) at the concentration of 10 ug/mL
Leishmania braziliensis [20] = experiment: Tested in vitro for leishmanicidal activity against Leishmania brasiliensis (2903) at the concentration of 100 ug/mL; + indicates Less than 70% lysis of parasites
Leishmania braziliensis [21] = experiment: In vitro for leishmanicidal activity against Leishmania brasiliensis (2903) at the concentration of 25 ug/mL.
Leishmania donovani [22] = experiment: Tested in vitro for leishmanicidal activity against Leishmania donovani (PP75) at the concentration of 100 ug/mL;+ indicates Less than 70% lysis of parasites
Leishmania amazonensis [23] = experiment: Tested in vitro for leishmanicidal activity against Leishmania amazonensis (PH8) at the concentration of 100 ug/mL; + indicates Less than 70% lysis of parasites
Leishmania braziliensis [24] = experiment: In vitro for leishmanicidal activity against Leishmania brasiliensis (2903) at the concentration of 50 ug/mL.
Leishmania donovani [25] = experiment: In vitro for leishmanicidal activity against Leishmania donovani (PP75) at the concentration of 25 ug/mL.
Leishmania amazonensis [26] = experiment: In vitro for leishmanicidal activity against Leishmania amazonensis (PH8) at 25 ug/mL; No lysis of parasites.
Leishmania braziliensis [27] = experiment: Tested in vitro for leishmanicidal activity against Leishmania brasiliensis (2903) at the concentration of 100 ug/mL;++ indicates 80-90% lysis of parasites
Leishmania amazonensis [28] = experiment: Tested in vitro for leishmanicidal activity against Leishmania amazonensis (PH8) at the concentration of 50 ug/mL; + indicates less than 70% lysis of parasites
Leishmania donovani [29] = experiment: Tested in vitro for leishmanicidal activity against Leishmania donovani (PP75) at the concentration of 50 ug/mL;+ indicates Less than 70% lysis of parasites
Leishmania braziliensis [30] = experiment: Tested in vitro for leishmanicidal activity against Leishmania brasiliensis (2903) at the concentration of 50 ug/mL;+ indicates Less than 70% lysis of parasites
Leishmania amazonensis [31] = experiment: Tested in vitro for leishmanicidal activity against Leishmania amazonensis (PH8) at the concentration of 100 ug/mL; + indicates less than 70% lysis of parasites
Leishmania braziliensis [32] = experiment: Tested in vitro for leishmanicidal activity against Leishmania brasiliensis (2903) at the concentration of 10 ug/mL;++ indicates 80-90% lysis of parasites
Leishmania amazonensis [33] = experiment: Tested in vitro for leishmanicidal activity against Leishmania amazonensis (PH8) at the concentration of 10 ug/mL; ++ indicates 80-90% lysis of parasites
Leishmania donovani [34] = experiment: Tested in vitro for leishmanicidal activity against Leishmania donovani (PP75) at the concentration of 10 ug/mL;++ indicates 80-90% lysis of parasites

SMILES | Activity (Leishmania amazonensis [1]) | Activity (Leishmania amazonensis [4]) | Activity (Leishmania donovani [7]) | Activity (Leishmania donovani [8]) | Activity (Leishmania braziliensis [10]) | Activity (Leishmania amazonensis [11]) | Activity (Leishmania donovani [12]) | Activity (Leishmania amazonensis [13]) | Activity (Leishmania donovani [17]) | Activity (Leishmania braziliensis [18]) | Activity (Leishmania donovani [19]) | Activity (Leishmania braziliensis [20]) | Activity (Leishmania braziliensis [21]) | Activity (Leishmania donovani [22]) | Activity (Leishmania braziliensis [24]) | Activity (Leishmania donovani [25]) | Activity (Leishmania amazonensis [26]) | other results
CCCCCCCCCCCCCCC(N)CNCC (configuration not stated) | + | 80-90% lysis of parasites | 80-90% lysis of parasites | 80-90% lysis of parasites | + | 80-90% lysis of parasites | + | – | – | – | – | – | – | – | – | – | – | Activity (Leishmania donovani [2]): 80-90% lysis of parasites; Activity (Leishmania braziliensis [3]): 80-90% lysis of parasites; Activity (Leishmania amazonensis [5]): 80-90% lysis of parasites; Activity (Leishmania braziliensis [6]): 80-90% lysis of parasites; Activity (Leishmania braziliensis [9]): 80-90% lysis of parasites
CCCCCCCCCCCCCCC(N)CNC(=O)CCCC(=O)O (configuration not stated) | + | – | – | 80-90% lysis of parasites | + | 80-90% lysis of parasites | + | + | + | – | – | – | – | – | – | – | – | Activity (Leishmania braziliensis [3]): 80-90% lysis of parasites; Activity (Leishmania donovani [14]): 80-90% lysis of parasites; Activity (Leishmania braziliensis [15]): 80-90% lysis of parasites; Activity (Leishmania amazonensis [16]): 80-90% lysis of parasites
CCCCCCCCCCCCCCC(N)CN(CC(=O)O)CC(=O)O (configuration not stated) | + | 80-90% lysis of parasites | 80-90% lysis of parasites | – | + | 80-90% lysis of parasites | + | – | – | 80-90% lysis of parasites | 80-90% lysis of parasites | – | – | – | – | – | – | Activity (Leishmania donovani [2]): 80-90% lysis of parasites; Activity (Leishmania amazonensis [5]): 80-90% lysis of parasites; Activity (Leishmania braziliensis [6]): 80-90% lysis of parasites; Activity (Leishmania braziliensis [9]): 80-90% lysis of parasites
CCCCCCCCCCCCCCC(N)COCc1ccccc1 (configuration not stated) | – | – | – | – | – | Less than 70% lysis of parasites | – | Less than 70% lysis of parasites | Less than 70% lysis of parasites | Less than 70% lysis of parasites | Less than 70% lysis of parasites | Less than 70% lysis of parasites | Less than 70% lysis of parasites | Less than 70% lysis of parasites | Less than 70% lysis of parasites | Less than 70% lysis of parasites | Less than 70% lysis of parasites | Activity (Leishmania amazonensis [23]): Less than 70% lysis of parasites
CCCCCCCCCCCCCCC(COCc1ccccc1)NC(=O)OC(C)(C)C (configuration not stated) | – | – | – | – | – | Less than 70% lysis of parasites | – | Less than 70% lysis of parasites | Less than 70% lysis of parasites | Less than 70% lysis of parasites | Less than 70% lysis of parasites | Less than 70% lysis of parasites | Less than 70% lysis of parasites | Less than 70% lysis of parasites | Less than 70% lysis of parasites | Less than 70% lysis of parasites | Less than 70% lysis of parasites | Activity (Leishmania amazonensis [23]): Less than 70% lysis of parasites
CCCCCCCCCCCCCCC(CN(CC(=O)OCC)CC(=O)OCC)NC(=O)OC(C)(C)C (configuration not stated) | 80-90% lysis of parasites | – | – | – | – | 80-90% lysis of parasites | 80-90% lysis of parasites | 80-90% lysis of parasites | 80-90% lysis of parasites | 80-90% lysis of parasites | 80-90% lysis of parasites | – | 80-90% lysis of parasites | – | 80-90% lysis of parasites | 80-90% lysis of parasites | 80-90% lysis of parasites | Activity (Leishmania braziliensis [27]): 80-90% lysis of parasites
CCCCCCCCCCCCCCC(N)CNCC(=O)OCC (configuration not stated) | + | Less than 70% lysis of parasites | Less than 70% lysis of parasites | Less than 70% lysis of parasites | + | Less than 70% lysis of parasites | + | – | – | – | – | – | – | – | – | – | – | Activity (Leishmania braziliensis [3]): Less than 70% lysis of parasites; Activity (Leishmania amazonensis [28]): Less than 70% lysis of parasites; Activity (Leishmania donovani [29]): Less than 70% lysis of parasites; Activity (Leishmania braziliensis [30]): Less than 70% lysis of parasites; Activity (Leishmania braziliensis [6]): Less than 70% lysis of parasites
CCCCCCCCCCCCCCC(=O)NC(CO)CCCCCCCCCCCCCC (configuration not stated) | – | – | – | – | – | Less than 70% lysis of parasites | – | Less than 70% lysis of parasites | Less than 70% lysis of parasites | Less than 70% lysis of parasites | Less than 70% lysis of parasites | Less than 70% lysis of parasites | Less than 70% lysis of parasites | Less than 70% lysis of parasites | Less than 70% lysis of parasites | Less than 70% lysis of parasites | Less than 70% lysis of parasites | Activity (Leishmania amazonensis [31]): Less than 70% lysis of parasites
CCCCCCCCCCCCCCC(CNCC)NC(=O)OC(C)(C)C (configuration not stated) | + | 80-90% lysis of parasites | 80-90% lysis of parasites | 80-90% lysis of parasites | + | 80-90% lysis of parasites | 80-90% lysis of parasites | + | + | – | – | – | – | – | – | – | – | Activity (Leishmania braziliensis [32]): 80-90% lysis of parasites
CCCCCCCCCCCCCCC(N)CNCC(=O)O (configuration not stated) | 80-90% lysis of parasites | – | – | – | – | 80-90% lysis of parasites | + | – | – | 80-90% lysis of parasites | 80-90% lysis of parasites | – | 80-90% lysis of parasites | – | – | 80-90% lysis of parasites | 80-90% lysis of parasites | Activity (Leishmania amazonensis [28]): 80-90% lysis of parasites; Activity (Leishmania donovani [29]): 80-90% lysis of parasites; Activity (Leishmania braziliensis [30]): 80-90% lysis of parasites; Activity (Leishmania braziliensis [27]): 80-90% lysis of parasites
CCCCCCCCCCCCCCC(=O)NC(CCCCCCCCCCCCCC)COC(=O)CCCCCC (configuration not stated) | – | – | – | – | – | Less than 70% lysis of parasites | – | Less than 70% lysis of parasites | Less than 70% lysis of parasites | Less than 70% lysis of parasites | Less than 70% lysis of parasites | Less than 70% lysis of parasites | Less than 70% lysis of parasites | Less than 70% lysis of parasites | Less than 70% lysis of parasites | Less than 70% lysis of parasites | Less than 70% lysis of parasites | Activity (Leishmania amazonensis [31]): Less than 70% lysis of parasites
CCCCCCCCCCCCCCC(CN(CC)CC)NC(=O)OC(C)(C)C (configuration not stated) | + | – | – | – | + | – | + | + | + | – | – | – | – | – | – | – | – | Activity (Leishmania amazonensis [33]): 80-90% lysis of parasites; Activity (Leishmania braziliensis [32]): 80-90% lysis of parasites; Activity (Leishmania donovani [34]): 80-90% lysis of parasites
